From US8524740B2, “Synthesis and anticancer activity of aryl and heteroaryl-quinolin derivatives” (Tairx, Inc., priority 2010, dated 2013)
pIC50: −log10 of the molar value.

Legend:
MES-SA = test: MTT assay, MES-SA cells; format: cell-based; conditions: Homo sapiens, 48 hrs
Experimental: (§1) HL-60, Hep 3B, H460, MES-SA, MES-SAID x5 and Detroit 551 cells were treated with vehicle or test compounds for 48 h. The cell growth rate was determined by MTT (3-(4,5-dimethyl-thiazol-2-yl)-2,5-diphenyltetrazoliun bromide) reduction assay.

MES-SA/Dx5 = test: MTT assay, MES-SA/Dx5 cells; format: cell-based, human; conditions: for pIC50: Homo sapiens, MES-SA/Dx5, 48 hrs; for Ratio Of SA/Dx5: IC50 MES-SA/Dx5 over IC50 MES-SA
Experimental: as §1

Detroit 551 = test: MTT assay, Detroit 551 normal human cells; format: cell-based; conditions: Detroit 551
Experimental: (§2) MTT (3-(4,5-Dimethylthiazol-2-yl)-2,5-diphenyltetrazolium bromide) assays.^21,22 HL-60, HCT-116, Hep 3B, H460, Detroit 551 and HT29/FuR cells were treated with tested compounds for the indicated periods. After treatment, cells were washed once with PBS and incubated with MTT (Sigma, St. Louis, Mo., USA) for 2 h. The formazan precipitate was dissolved in 150 μL of DMSO, and the absorbance was measured with an ELISA reader at 570 nm.
as §1
as §2, with “assays.” for “assays.^21,22”, “HL-60,” for “HL-60, HCT-116,”, “H460, A498, Colo205 and” for “H460,”, “551” for “551 and HT29/FuR”

Hep3B = test: MTT assay, Hep 3B cells; format: cell-based; conditions: Homo sapiens
Experimental: as §2, §1
as §2, with “assays.” for “assays.^21,22”, “HCT-116, A549,” for “HCT-116,”, “KB, Kb-VIN” for “H460, Detroit 551”, “DU145” for “HT29/FuR”
as §2, with “assays.” for “assays.^21,22”, “HL-60,” for “HL-60, HCT-116,”, “H460, A498, Colo205 and” for “H460,”, “551” for “551 and HT29/FuR”

H460 = test: MTT assay, H460 cells; format: cell-based; conditions: Homo sapiens, NCI-H460
Experimental: as §2, §1
as §2, with “assays.” for “assays.^21,22”, “HL-60,” for “HL-60, HCT-116,”, “H460, A498, Colo205 and” for “H460,”, “551” for “551 and HT29/FuR”

HL-60 = test: MTT assay, HL-60 cells; format: cell-based; conditions: Homo sapiens
Experimental: as §2, §1
as §2, with “assays.” for “assays.^21,22”, “HCT-116, A549,” for “HCT-116,”, “KB, Kb-VIN” for “H460, Detroit 551”, “DU145” for “HT29/FuR”
as §2, with “assays.” for “assays.^21,22”, “HL-60,” for “HL-60, HCT-116,”, “H460, A498, Colo205 and” for “H460,”, “551” for “551 and HT29/FuR”

HCT116 = test: MTT assay, HCT-116 cells; format: cell-based; conditions: Homo sapiens, Table 1, 48 h
Experimental: as §2
as §2, with “assays.” for “assays.^21,22”, “HCT-116, A549,” for “HCT-116,”, “KB, Kb-VIN” for “H460, Detroit 551”, “DU145” for “HT29/FuR”

HT29/5FuR = test: MTT assay, HT29/5FuR cells; format: cell-based; conditions: Homo sapiens, HT-29, Table 1, 48 h
Experimental: as §2

[1] = tested on: HL-60, HCT-116, Hep3B, H-460; test: Cytotoxicity screen (MTT) against human cancer cell lines, results in words; format: cell-based; conditions: comparison within sub-series or with CHM-2133
Experimental: as §2, §1

[2] = Homo sapiens, Table 2, B-1 series, 48 hrs
[3] = Table 1, 48 h, MTT, normal human cell
[4] = Homo sapiens, Table 3, B-2 series, 48 hrs

Structure (SMILES)	pIC50 (MES-SA; Table 2, B-1 series)	pIC50 (MES-SA/Dx5; Table 2, B-1 series)	Ratio Of SA/Dx5 (MES-SA/Dx5; Table 2, B-1 series)	pIC50 (Detroit 551; [2])	melting point	pIC50 (H460; Table 2, B-1 series, 48 hrs)	pIC50 (HL-60; Table 2, B-1 series, 48 hrs)	pIC50 (HCT116)	pIC50 (HT29/5FuR)	pIC50 (Detroit 551; [3])	pIC50 (Hep3B; Table 1, 48 h, MTT)	pIC50 (H460; Table 1, 48 h, MTT)	pIC50 (HL-60; Table 1, 48 h, MTT)	cytotoxicity (in words) [1]	also measured
O=C1CC(c2cccc(O)c2)=Nc2ccc(N3CCOCC3)cc21 [Compound 137, 2-(3-Hydroxyphenyl)-6-morpholinoquinolin-4-one]	5.44	5.14	2.02	5.00	357 to 360 °C	4.61	6.64	–	–	–	–	–	–	–	pIC50 (Hep3B; Table 2, B-1 series, 48 hrs): 4.94
COc1ccc2c(c1OC)C(=O)CC(c1cccc(F)c1)=N2 [Compound 17, 2-(3-Fluorophenyl)-5,6-dimethoxyquinolin-4-one]	–	–	–	–	190 to 192 °C	–	–	5.92	5.71	4.00	5.59	5.46	5.89	strongest cytotoxicity	–
COc1ccc(OC)c(C2=Nc3ccc(N4CCCC4)cc3C(=O)C2)c1 [Compound 129, 2-(2,5-Dimethoxyphenyl)-6-pyrrolidinoquinolin-4-one]	–	–	–	–	272 to 274 °C	–	–	–	–	–	–	–	–	–	pIC50 (MES-SA; Table 3, B-2 series): 6.64; pIC50 (MES-SA/Dx5; Table 3, B-2 series): 6.67; Ratio Of SA/Dx5 (MES-SA/Dx5; Table 3, B-2 series): 0.94; pIC50 (Detroit 551; [4]): 5.30; pIC50 (Hep3B; Table 3, B-2 series, 48 hrs): 6.66; pIC50 (H460; Table 3, B-2 series, 48 hrs): 6.72; pIC50 (HL-60; Table 3, B-2 series, 48 hrs): 8.22
COc1cccc(C2=Nc3ccc(N4CCCC4)cc3C(=O)C2)c1OC [Compound 127, 2-(2,3-Dimethoxyphenyl)-6-pyrrolidinoquinolin-4-one]	–	–	–	–	258 to 260 °C	–	–	–	–	–	–	–	–	–	pIC50 (MES-SA; Table 3, B-2 series): 6.10; pIC50 (MES-SA/Dx5; Table 3, B-2 series): 5.77; Ratio Of SA/Dx5 (MES-SA/Dx5; Table 3, B-2 series): 2.13; pIC50 (Detroit 551; [4]): < 4.70; pIC50 (Hep3B; Table 3, B-2 series, 48 hrs): 5.92; pIC50 (H460; Table 3, B-2 series, 48 hrs): 5.75; pIC50 (HL-60; Table 3, B-2 series, 48 hrs): 6.28
COc1cc2c(cc1O)N=C(c1cccc(F)c1)CC2=O [Compound 44, 2-(3-Fluorophenyl)-7-hydroxy-6-methoxyquinolin-4-one]	–	–	–	–	326 to 328 °C	–	–	5.96	6.52	5.00	5.28	5.32	6.05	greater cytotoxicity	–
O=C1CC(c2ccccc2O)=Nc2ccc(N3CCCC3)cc21 [Compound 135, 2-(2-Hydroxyphenyl)-6-pyrrolidinoquinolin-4-one]	–	–	–	–	304 to 306 °C	–	–	–	–	–	–	–	–	–	pIC50 (MES-SA; Table 3, B-2 series): 6.07; pIC50 (MES-SA/Dx5; Table 3, B-2 series): 6.00; Ratio Of SA/Dx5 (MES-SA/Dx5; Table 3, B-2 series): 1.18; pIC50 (Detroit 551; [4]): 4.60; pIC50 (Hep3B; Table 3, B-2 series, 48 hrs): 5.88; pIC50 (H460; Table 3, B-2 series, 48 hrs): 6.07; pIC50 (HL-60; Table 3, B-2 series, 48 hrs): 6.44
CN(C)c1ccc2c(c1)C(=O)CC(c1cccc(O)c1)=N2 [Compound 139, 2-(3-Hydroxyphenyl)-6-dimethylaminoquinolin-4-one]	–	–	–	–	342 to 344 °C	–	–	–	–	–	–	–	–	–	pIC50 (MES-SA; Table 4, B-3 series): 6.03; pIC50 (MES-SA/Dx5; Table 4, B-3 series): 6.07; Ratio Of SA/Dx5 (MES-SA/Dx5; Table 4, B-3 series): 0.92; pIC50 (Detroit 551; Homo sapiens, Table 4, B-3 series, 48 hrs): 5.00; pIC50 (Hep3B; Table 4, B-3 series, 48 hrs): 6.00; pIC50 (H460; Table 4, B-3 series, 48 hrs): 5.21; pIC50 (HL-60; Table 4, B-3 series, 48 hrs): 7.22
COc1cccc(C2=Nc3ccc(N4CCOCC4)cc3C(=O)C2)c1OC [Compound 126, 2-(2,3-Dimethoxyphenyl)-6-morpholinoquinolin-4-one]	5.30	4.76	3.49	< 4.30	235 to 236 °C	4.76	5.28	–	–	–	–	–	–	–	pIC50 (Hep3B; Table 2, B-1 series, 48 hrs): 5.01
COc1ccccc1C1=Nc2ccc(N3CCOCC3)cc2C(=O)C1 [Compound 130, 2-(2-Methoxyphenyl)-6-morpholinoquinolin-4-one]	5.60	5.01	3.88	< 4.70	262 to 264 °C	5.13	5.61	–	–	–	–	–	–	–	–
COc1ccc2c(c1OC)C(=O)CC(c1ccc(F)cc1)=N2 [Compound 18, 2-(4-Fluorophenyl)-5,6-dimethoxyquinolin-4-one]	–	–	–	–	227 to 229 °C	–	–	< 4.70	5.69	< 4.70	< 4.70	< 4.70	5.70	weaker	–
O=C1CC(c2ccc(F)cc2)=Nc2ccc3c(c21)OCO3 [Compound 21, 2-(4-Fluorophenyl)-5,6-methylenedioxyquinolin-4-one]	–	–	–	–	286 to 288 °C	–	–	< 5.00	6.28	< 5.00	< 5.00	< 5.00	< 5.00	weaker	–
O=C1CC(c2cccc3c2OCO3)=Nc2ccc(N3CCOCC3)cc21 [Compound 124, 2-(Benzo[d][1,3]-dioxol-4-yl)-6-morpholinoquinolin-4-one]	5.63	5.68	0.89	< 5.60	350 to 352 °C	5.67	6.14	–	–	–	–	–	–	–	pIC50 (Hep3B; Table 2, B-1 series, 48 hrs): 5.82
COc1ccccc1C1=Nc2ccc(N3CCCC3)cc2C(=O)C1 [Compound 131, 2-(2-Methoxyphenyl)-6-pyrrolidinoquinolin-4-one]	–	–	–	–	312 to 313 °C	–	–	–	–	–	–	–	–	–	pIC50 (MES-SA; Table 3, B-2 series): 6.35; pIC50 (MES-SA/Dx5; Table 3, B-2 series): 6.35; Ratio Of SA/Dx5 (MES-SA/Dx5; Table 3, B-2 series): 1.01; pIC50 (Detroit 551; [4]): < 5.00; pIC50 (Hep3B; Table 3, B-2 series, 48 hrs): 6.52; pIC50 (H460; Table 3, B-2 series, 48 hrs): 6.24; pIC50 (HL-60; Table 3, B-2 series, 48 hrs): 6.89
COc1cc2c(cc1O)N=C(c1ccc(F)cc1)CC2=O [Compound 45, 2-(4-Fluorophenyl)-7-hydroxy-6-methoxyquinolin-4-one]	–	–	–	–	352 to 354 °C	–	–	< 4.00	6.43	< 4.00	< 4.00	< 4.00	4.42	weaker	–
COc1cc2c(cc1O)N=C(c1ccccc1F)CC2=O [Compound 43, 2-(2-Fluorophenyl)-7-hydroxy-6-methoxyquinolin-4-one]	–	–	–	–	277 to 279 °C	–	–	5.24	6.54	4.53	5.28	5.36	5.89	greater cytotoxicity	–
O=C1CC(c2ccccc2F)=Nc2ccc3c(c21)OCO3 [Compound 19, 2-(2-Fluorophenyl)-5,6-methylenedioxyquinolin-4-one]	–	–	–	–	282 to 283 °C	–	–	5.68	6.16	< 5.00	5.72	5.35	6.00	significant cytotoxicity	–
COc1ccc(OC)c(C2=Nc3ccc(N4CCOCC4)cc3C(=O)C2)c1 [Compound 128, 2-(2,5-Dimethoxyphenyl)-6-morpholinoquinolin-4-one]	5.69	5.09	4.04	4.78	–	5.46	5.92	–	–	–	–	–	–	–	pIC50 (Hep3B; Table 2, B-1 series, 48 hrs): 5.51
O=C1CC(c2cc(O)ccc2O)=Nc2ccc(N3CCOCC3)cc21 [Compound 144a, 2-(2,5-dihydroxyphenyl)-6-morpholinoquinolin-4-one]	–	–	–	–	–	–	–	–	–	–	–	–	–	–	pIC50 (MES-SA; Table 3, B-2 series): 5.43; pIC50 (MES-SA/Dx5; Table 3, B-2 series): 4.60; Ratio Of SA/Dx5 (MES-SA/Dx5; Table 3, B-2 series): 6.78; pIC50 (Detroit 551; [4]): 5.04; pIC50 (Hep3B; Table 3, B-2 series, 48 hrs): 5.13; pIC50 (H460; Table 3, B-2 series, 48 hrs): 5.19; pIC50 (HL-60; Table 3, B-2 series, 48 hrs): 5.79
O=C1CC(c2ccccc2O)=Nc2ccc(N3CCOCC3)cc21 [Compound 134, 2-(2-Hydroxyphenyl)-6-morpholinoquinolin-4-one]	5.62	4.98	4.38	< 4.00	–	5.08	5.68	–	–	–	–	–	–	–	pIC50 (Hep3B; Table 2, B-1 series, 48 hrs): 5.06
O=C1CC(c2cccc(F)c2)=Nc2ccc3c(c21)OCO3 [Compound 20, 2-(3-Fluorophenyl)-5,6-methylenedioxyquinolin-4-one]	–	–	–	–	286 to 288 °C	–	–	5.60	6.09	< 5.30	5.62	5.49	6.15	significant cytotoxicity	–
